Test results: ChEMBL document CHEMBL1141992, “Synthesis and radiopharmacological evaluation of 2'-(4-fluorophenyl)-21-[18F]fluoro-20-oxo-11beta,17alpha-dihydroxy-pregn-4-eno[3,2-c]pyrazole as potential glucocorticoid receptor ligand for positron emission tomography (PET)” (Bioorg Med Chem Lett, 2005)

Tests used:
[1] = Radioactivity expressed as percent injected dose per gram after single intravenous injection of 50 uCi after 60 min in rat pancreas;n =4; format: ADME; conditions: in vivo, 1 h
[2] = Radioactivity expressed as percent injected dose per gram after single intravenous injection of 50 uCi after 5 min in rat femur;n =4; format: ADME, tissue-based; conditions: in vivo
[3] = Radioactivity expressed as percent injected dose per gram after single intravenous injection of 50 uCi after 60 min in rat blood;n =4; format: ADME; conditions: in vivo, 1 h
[4] = Radioactivity expressed as percent injected dose per gram after single intravenous injection of 50 uCi after 5 min in rat muscle;n =4; format: ADME, tissue-based, Muscle tissue; conditions: in vivo
[5] = Radioactivity expressed as percent injected dose per gram after single intravenous injection of 50 uCi after 60 min in rat femur;n =4; format: ADME, tissue-based; conditions: in vivo, 1 h
[6] = Radioactivity expressed as percent injected dose per gram after single intravenous injection of 50 uCi after 5 min in rat blood;n =4; format: ADME; conditions: in vivo
[7] = Activity distribution of compound in blocked (hydrocortisone) rat brain pituitary after single iv injection of 0.9 mCi at 60 min after injection by ex vivo autoradiography; format: ADME, organism-based; conditions: 1 h
[8] = Radioactivity expressed as percent injected dose per gram after single intravenous injection of 50 uCi after 5 min in rat liver;n =4; format: ADME, tissue-based; conditions: in vivo
[9] = Radioactivity expressed as percent injected dose per gram after single intravenous injection of 50 uCi after 60 min in rat brain;n =4; format: ADME, tissue-based; conditions: in vivo, 1 h
[10] = Radioactivity expressed as percent injected dose per gram after single intravenous injection of 50 uCi after 60 min in rat adrenals;n =4; format: ADME, tissue-based, Adrenal gland; conditions: in vivo, 1 h
[11] = Activity distribution of compound in blocked (hydrocortisone) rat brain cortex after single iv injection of 0.9 mCi at 60 min after injection by ex vivo autoradiography; format: ADME, organism-based; conditions: 1 h
[12] = Activity distribution of compound in blocked (hydrocortisone) rat brain inferior coliculi after single iv injection of 0.9 mCi at 60 min after injection by ex vivo autoradiography; format: ADME, organism-based; conditions: 1 h
[13] = Radioactivity expressed as percent injected dose per gram after single intravenous injection of 50 uCi after 60 min in rat muscle;n =4; format: ADME, tissue-based, Muscle tissue; conditions: in vivo, 1 h
[14] = Radioactivity expressed as percent injected dose per gram after single intravenous injection of 50 uCi after 60 min in rat thymus;n =4; format: ADME; conditions: in vivo, 1 h
[15] = Radioactivity expressed as percent injected dose per gram after single intravenous injection of 50 uCi after 5 min in rat adrenals;n =4; format: ADME, tissue-based, Adrenal gland; conditions: in vivo
[16] = Radioactivity expressed as percent injected dose per gram after single intravenous injection of 50 uCi after 5 min in rat kidney;n =4; format: ADME, tissue-based; conditions: in vivo
[17] = Radioactivity expressed as percent injected dose per gram after single intravenous injection of 50 uCi after 5 min in rat spleen;n =4; format: ADME, tissue-based; conditions: in vivo
[18] = Radioactivity expressed as percent injected dose per gram after single intravenous injection of 50 uCi after 5 min in rat hard glands;n =4; format: ADME; conditions: in vivo
[19] = Radioactivity expressed as percent injected dose per gram after single intravenous injection of 50 uCi after 5 min in rat pancreas;n =4; format: ADME; conditions: in vivo
[20] = Radioactivity expressed as percent injected dose per gram after single intravenous injection of 50 uCi after 60 min in rat liver;n =4; format: ADME, tissue-based; conditions: in vivo, 1 h
[21] = Activity distribution of compound in blocked (hydrocortisone) rat brain hippocampus after single iv injection of 0.9 mCi at 60 min after injection by ex vivo autoradiography; format: ADME, organism-based; conditions: 1 h
[22] = Radioactivity expressed as percent injected dose per gram after single intravenous injection of 50 uCi after 60 min in rat heart;n =4; format: ADME; conditions: in vivo, 1 h
[23] = Radioactivity expressed as percent injected dose per gram after single intravenous injection of 50 uCi after 60 min in rat hard glands;n =4; format: ADME; conditions: in vivo, 1 h
[24] = Radioactivity expressed as percent injected dose per gram after single intravenous injection of 50 uCi after 5 min in rat testis;n =4; format: ADME; conditions: in vivo
[25] = Radioactivity expressed as percent injected dose per gram after single intravenous injection of 50 uCi after 5 min in rat thymus;n =4; format: ADME; conditions: in vivo
[26] = Radioactivity expressed as percent injected dose per gram after single intravenous injection of 50 uCi after 60 min in rat brown fat;n =4; format: ADME; conditions: in vivo, 1 h
[27] = Radioactivity expressed as percent injected dose per gram after single intravenous injection of 50 uCi after 60 min in rat pituitary;n =4; format: ADME; conditions: in vivo, 1 h
[28] = Activity distribution of compound in blocked (hydrocortisone) rat brain cerebellar nuclei after single iv injection of 0.9 mCi at 60 min after injection by ex vivo autoradiography; format: ADME, organism-based; conditions: 1 h
[29] = Radioactivity expressed as percent injected dose per gram after single intravenous injection of 50 uCi after 60 min in rat spleen;n =4; format: ADME, tissue-based; conditions: in vivo, 1 h
[30] = Radioactivity expressed as percent injected dose per gram after single intravenous injection of 50 uCi after 5 min in rat fat;n =4; format: ADME; conditions: in vivo
[31] = Activity distribution of compound in blocked (hydrocortisone) rat brain plexus choroideus after single iv injection of 0.9 mCi at 60 min after injection by ex vivo autoradiography; format: ADME, organism-based; conditions: 1 h
[32] = Radioactivity expressed as percent injected dose per gram after single intravenous injection of 50 uCi after 60 min in rat fat;n =4; format: ADME; conditions: in vivo, 1 h
[33] = Radioactivity expressed as percent injected dose per gram after single intravenous injection of 50 uCi after 5 min in rat lung;n =4; format: ADME; conditions: in vivo
[34] = Radioactivity expressed as percent injected dose per gram after single intravenous injection of 50 uCi after 5 min in rat brain;n =4; format: ADME, tissue-based; conditions: in vivo
[35] = Radioactivity expressed as percent injected dose per gram after single intravenous injection of 50 uCi after 60 min in rat testis;n =4; format: ADME; conditions: in vivo, 1 h
[36] = Radioactivity expressed as percent injected dose per gram after single intravenous injection of 50 uCi after 5 min in rat heart;n =4; format: ADME; conditions: in vivo
[37] = Radioactivity expressed as percent injected dose per gram after single intravenous injection of 50 uCi after 5 min in rat brown fat;n =4; format: ADME; conditions: in vivo
[38] = Radioactivity expressed as percent injected dose per gram after single intravenous injection of 50 uCi after 60 min in rat lung;n =4; format: ADME; conditions: in vivo, 1 h
[39] = Radioactivity expressed as percent injected dose per gram after single intravenous injection of 50 uCi after 5 min in rat pituitary;n =4; format: ADME; conditions: in vivo
[40] = Radioactivity expressed as percent injected dose per gram after single intravenous injection of 50 uCi after 60 min in rat kidney;n =4; format: ADME, tissue-based; conditions: in vivo, 1 h

C[C@]12Cc3cnn(-c4ccc(F)cc4)c3C=C1CCC1C2[C@@H](O)C[C@@]2(C)C1CC[C@]2(O)C(=O)C[18F] (stereo not given in full)
ID/g [1]: 0.85% | ID/g [2]: 0.34% | ID/g [3]: 0.08% | ID/g [4]: 0.31% | ID/g [5]: 0.22% | ID/g [6]: 0.06% | ID/g [7]: 1.36% | ID/g [8]: 1.3% | ID/g [9]: 0.25% | ID/g [10]: 1.96% | ID/g [11]: 0.7% | ID/g [12]: 0.89% | ID/g [13]: 0.32% | ID/g [14]: 0.4% | ID/g [15]: 1.23% | ID/g [16]: 0.66% | ID/g [17]: 0.4% | ID/g [18]: 1.09% | ID/g [19]: 0.85% | ID/g [20]: 2.15% | ID/g [21]: 0.59% | ID/g [22]: 0.66% | ID/g [23]: 0.55% | ID/g [24]: 0.18% | ID/g [25]: 0.37% | ID/g [26]: 0.91% | ID/g [27]: 0.82% | ID/g [28]: 0.94% | ID/g [29]: 0.44% | ID/g [30]: 0.82% | ID/g [31]: 0.83% | ID/g [32]: 0.31% | ID/g [33]: 0.6% | ID/g [34]: 0.26% | ID/g [35]: 0.07% | ID/g [36]: 0.63% | ID/g [37]: 0.8% | ID/g [38]: 0.66% | ID/g [39]: 0.52% | ID/g [40]: 0.87%
